Measurements as given in US20060241162A1, “Optically active (R)-hydantoin derivative” (priority 2005, published 2006).
Entries after “also recorded” stand apart in the source; their conditions may differ.

Tested on: model rats for renal insufficiency
Experiment: Suppressive action to the progression of renal failure in adenine-induced renal insufficiency model rats
Assay type: in vivo, Wistar-strain male rats
Source text: (1) Suppressive Action of the Optical Isomer to the Progression of Renal Failure
Adenine was orally administered to Wistar-strain male rats of eight weeks age to prepare a renal insufficiency model. […] Further, a value of creatinine clearance (mL/kg/hr) decreased from 315.3±13.8 to 25.7±4.4 whereupon renal functions lowered to about one-tenth.
From the 7th to the 17th days from administration of adenine, each of (S)-(−)- 5-hydroxy-1-methylhydantoin, (R)-(+)-5-hydroxy-1-methylhydantoin and the racemate at the dose of 100 mg/kg or 200 mg/kg was orally administered to the rat in which renal insufficiency was induced by adenine. The creatinine levels in blood before and after the administration of the test drug were compared whereupon a suppressive action of the test drug to an increase of creatinine (ΔCr) accompanied by the progress of renal insufficiency was checked and the results are shown in FIG. 1 and FIG. 2. Five rats were used as a group for the test. The average value ± standard error was calculated and the significant difference between the test drug group and the diseased control group was statistically analyzed by means of Dunnett's test or Student-t test (*; p<0.05).

## CN1C(=O)NC(=O)[C@H]1O [(R)-(+)-5-hydroxy-1-methylhydantoin]
As compared with the S-form and the racemate, oral, listed as R-form
  suppressive action to the progression of renal failure: excellent suppressive action; also recorded: particularly an excellent suppressive effect
Oral 100 mg/kg or 200 mg/kg, 7th to 17th day of adenine, vs diseased control, p<0.05, FIG. 1 and FIG. 3
  suppressive action to an increase of creatinine in blood (ΔCr): significantly suppressed
